Experimental data taken from paper PMC9011347, “Small-Molecule Inhibitors Targeting Lipolysis in Human Adipocytes” (Journal of the American Chemical Society, 2022).

Key:
Test in all cases: TAG hydrolase assay, Expi293 lysates expressing ATGL orthologue
Format in all cases: biochemical
goat ATGL = system: goat ATGL
Text: (§1) We previously developed Atglistatin (Ai), a selective inhibitor of mouse ATGL,[31],[32] which is ineffective against human ATGL.[17] Ai acts as a competitive inhibitor targeting the minimal active domain of ATGL ranging from aa 1–254.[33] This domain is highly conserved in different mammalian species (∼90% identity, Table 1) and comprises the patatin-like domain, eponymous for all members of the patatin-like phospholipase domain-containing (PNPLA) protein family.[34] We first investigated the species selectivity of Ai by performing TAG hydrolase assays[35] with lysates from Expi293 cells expressing ATGL orthologues of different species. The activity of ATGL is strongly stimulated by the co-activator protein comparative gene identification-58 (CGI-58, also known as α/β hydrolase domain containing 5, ABHD5)[36] and can be suppressed by the inhibitory protein G0/G1 switch 2 (G0S2).[37] We therefore determined ATGL activity in the presence and absence of mouse CGI-58, mouse G0S2, and Ai. As shown in Figure 1a–i, all ATGL orthologues were expressed, enzymatically active, stimulated by mouse CGI-58, and inactivated by mouse G0S2. Ai inhibited mouse (Figure 1a), rat (Figure 1b), goat (Figure 1c), dog (Figure 1e), and marmoset ATGL (Figure 1f), but not pig (Figure 1d), rhesus monkey (Figure 1g), or human ATGL (Figure 1h).
(§2) Experimental details, materials, and methods
(§3) Expression of recombinant ATGL constructs and preparation of cell lysates. Expi293 cells were cultivated in Expi293 Expression Medium (GIBCO, Thermo Fisher Scientific, Waltham, USA) at standard conditions (37°C, 5% CO2, 95% humidified atmosphere, 125 rpm). DNA constructs containing ATGL from different species and chimeric ATGL variants in pcDNA3.1(+)myc-His C Vector were obtained from BioCat GmbH (Heidelberg, Germany). Cells were transfected with ExpiFectamine293 Transfection Kit (GIBCO) in Opti-Mem reduced serum medium (GIBCO) according to the manufacturer’s instructions. After 48 h, cells were harvested by centrifugation and washed three times with PBS. Cells were disrupted in buffer A (0.25 M sucrose, 1 mM EDTA, 1 mM dithiothreitol, 20µg/ml leupeptin, 2 µg/ml antipain, 1 µg/ml pepstatin, pH 7.0) by sonication (Virsonic 475, Virtis, Gardiner, USA). Nuclei and debris were removed by centrifugation at 1,000 g and 4°C for 10 min. Protein concentrations were determined using Bio-Rad protein assay (Bio-Rad 785, Bio-Rad Laboratories, Munich, Germany) using BSA as standard.
(§4) Expression and purification of mouse CGI-58. CGI-58 was expressed and purified as described 1. In brief, the coding sequence of mouse Cgi-58 was cloned into pHis-Sumo and co-transformed with the plasmid pTf16 expressing the chaperone Tig into E. coli BL21(DE3). Cells were cultured overnight at 37°C and 180 rpm in the presence of 40 µg/ml kanamycin and 34 µg/ml chloramphenicol. Thereafter, cells were transferred into fresh LB medium, grown until OD600 of 0.6, and expression was induced by the addition of 0.5 mM IPTG. After overnight incubation at 30°C, cells were harvested at 4,500 x g and 4°C for 20 min, washed in 1x PBS, and resuspended in lysis buffer (20 mM Tris/HCl pH 7.8, 300 mM NaCl, 30 mM imidazole, 0.1% IGEPAL CA-630, 3.5 mM β-mercaptoethanol, 20 µg/ml leupeptin, 2 µg/ml antipain and 1 µg/ml pepstatin). Cells were incubated with 1 mg/ml lysozyme at 4°C for 20 min, disrupted by sonication, and lysates were centrifuged at 30,000 x g and 4°C for 40 min. His-CGI-58 was purified from the supernatant using an ÄKTA pure system (Cytiva, Uppsala, Sweden) equipped with a 5 ml HisTrap […]
(§5) Expression and purification of mouse G0S2. Chemically competent E. coli ArcticExpress (DE3) cells were transformed with the pST50-SMT3-TEV-mG0S2-His expression plasmid, plated on LB agar plates containing 100 ampicillin, and incubated […] overnight at 37°C. The next day, 10 ml LB medium supplemented with 100 μg/ml ampicillin, 20 μg/ml gentamycin and 2% glucose were inoculated with a single colony and incubated overnight at 37°C. […]

mouse ATGL = target: T1, mouse ATGL (Mus musculus, UniProt Q8BJ56)
T1 construct: host or cells: Expi293 cells, crude lysate
Text: as §1, §2, §3, §4, §5

rat ATGL = target: T2, rat ATGL (Rattus norvegicus, UniProt P0C548)
T2 construct: host or cells: Expi293 cells, crude lysate
Text: as §1, §2, §3, §4, §5

marmoset ATGL = system: marmoset ATGL
Text: as §1, §2, §3, §4, §5

dog ATGL = system: dog ATGL
Text: as §1, §2, §3, §4, §5

T2 sequence (P0C548 whole entry): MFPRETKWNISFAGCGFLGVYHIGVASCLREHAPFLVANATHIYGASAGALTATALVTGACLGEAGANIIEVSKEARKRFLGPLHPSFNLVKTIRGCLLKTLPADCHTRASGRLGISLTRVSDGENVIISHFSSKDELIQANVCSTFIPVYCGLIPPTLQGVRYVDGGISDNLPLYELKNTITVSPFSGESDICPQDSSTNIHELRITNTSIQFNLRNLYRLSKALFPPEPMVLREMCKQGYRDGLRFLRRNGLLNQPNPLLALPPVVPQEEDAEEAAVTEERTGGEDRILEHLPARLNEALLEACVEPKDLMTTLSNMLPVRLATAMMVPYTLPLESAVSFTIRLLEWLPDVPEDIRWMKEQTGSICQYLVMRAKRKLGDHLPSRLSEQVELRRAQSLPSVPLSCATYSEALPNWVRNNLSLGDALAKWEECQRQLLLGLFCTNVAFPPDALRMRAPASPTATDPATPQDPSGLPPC
T1 sequence (Q8BJ56 whole entry): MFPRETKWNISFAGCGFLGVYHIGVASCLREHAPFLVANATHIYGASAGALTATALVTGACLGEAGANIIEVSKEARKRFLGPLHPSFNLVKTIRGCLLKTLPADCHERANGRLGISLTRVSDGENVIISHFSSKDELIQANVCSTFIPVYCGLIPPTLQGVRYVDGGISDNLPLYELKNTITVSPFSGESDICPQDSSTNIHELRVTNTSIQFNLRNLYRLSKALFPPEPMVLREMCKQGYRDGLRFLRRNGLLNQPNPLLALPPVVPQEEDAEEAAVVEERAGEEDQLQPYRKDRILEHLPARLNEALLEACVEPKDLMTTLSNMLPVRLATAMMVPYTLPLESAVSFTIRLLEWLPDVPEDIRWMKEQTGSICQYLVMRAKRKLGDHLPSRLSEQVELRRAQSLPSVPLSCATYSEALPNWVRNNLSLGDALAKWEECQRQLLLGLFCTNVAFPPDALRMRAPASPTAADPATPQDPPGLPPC

In the case of `CN(C)C(=O)Nc1cccc(-c2ccc(N(C)C)cc2)c1` [Atglistatin, reference compound], the “inhibition of TAG hydrolase activity” value (goat ATGL; Atglistatin (Ai) 40 μM) is reported as “inhibited”, the “inhibition of TAG hydrolase activity” value (mouse ATGL; Atglistatin (Ai) 40 μM) is reported as “inhibited” and the “inhibition of TAG hydrolase activity” value (rat ATGL; Atglistatin (Ai) 40 μM) is reported as “inhibited”. The “inhibition of TAG hydrolase activity” value (marmoset ATGL; Atglistatin (Ai) 40 μM) was “inhibited” and the “inhibition of TAG hydrolase activity” value (dog ATGL; Atglistatin (Ai) 40 μM) was “inhibited”.

`CCOc1ccc(-c2cc(OC)cc(C(=O)OC(C)C)n2)cc1` [NG-497] was tested, and the “reduction in TAG hydrolase activity” value (goat ATGL; NG-497 50 μM) was “less than 20%”, the “reduction in TAG hydrolase activity” value (mouse ATGL; NG-497 50 μM) was “less than 20%” and the “reduction in TAG hydrolase activity” value (rat ATGL; NG-497 50 μM) was “less than 20%”. For the same molecule, the “reduction in TAG hydrolase activity” value (marmoset ATGL; NG-497 50 μM) was “less than 20%” and the “reduction in TAG hydrolase activity” value (dog ATGL; NG-497 50 μM) was “less than 20%”.
